Tests used:
[1] = system: lymphoblasts; experiment: Propidium iodide staining of lymphoblasts treated with GCT siRNA, with or without etoposide; format: cell-based, human
Procedure: Propidium iodide (PI) staining. Lymphoblasts (treated with GCT siRNA vs. control siRNA) were treated vs. not treated with etoposide and stained with propidium iodide (PI). The percentage of PI positive cells was counted in each.

[2] = system: CLN8 protein; experiment: Protein-lipid overlay assay, CLN8 protein; format: binding; details: lysates from normal cells, custom made sphingostrips
Procedure: (§1) Protein-lipid overlay assay. Membrane arrays (SPHINGOSTRIPS (Echelon Research Laboratories, Salt Lake City, Utah), or lipids were spotted on nitrocellulose membranes and dried for at least one hour. Membranes were blocked with 3% (wt/vol) Fatty Acid Free or FFA-BSA (Sigma-Aldrich, St. Louis, Mo.) in Tris-Buffered Saline Tween-20 (TBST) [150 mM NaCl/10 mM Tris.HCl (pH 8.0), and 0.1% (vol/vol) Tween-20] for 1 h at RT. Blocked membranes were incubated for 8 h at 4° C. with 2 mg/ml of total cell lysate.
(§2) Fibroblasts overexpressing CLN3p (AC1 cells) and JNCL fibroblasts were used for the GalCer-CLN3 binding assay. The membranes were then washed five times for 5 min each with TBST. After washing, membranes were incubated with anti-CLN3, CLN1, CLN2, CLN6 or CLN8-antibodies overnight at 1:1000 dilution, followed by additional washing and incubation with horseradish peroxidase-conjugated anti-rabbit IgG goat antibody for 1 h at RT. After a final washing, enhanced chemiluminescence was used to detect binding of NCL proteins to sphingolipids. Intensity values were computed with an ImageJ software program.
(§3) CLN1, CLN2, CLN6, CLN8 and CLN9 proteins also bind to lipids. […]

[3] = target: T1, wild-type CLN3p (Homo sapiens, UniProt Q13286); experiment: Protein-lipid overlay assay, wild-type CLN3p; format: binding; details: lysate of CLN3-overexpressing cells, anti-CLN3 antibody
T1 construct: expressed in transfected cells; host or cells: fibroblasts overexpressing CLN3p (AC1 cells)
T1 sequence (Q13286 1-438): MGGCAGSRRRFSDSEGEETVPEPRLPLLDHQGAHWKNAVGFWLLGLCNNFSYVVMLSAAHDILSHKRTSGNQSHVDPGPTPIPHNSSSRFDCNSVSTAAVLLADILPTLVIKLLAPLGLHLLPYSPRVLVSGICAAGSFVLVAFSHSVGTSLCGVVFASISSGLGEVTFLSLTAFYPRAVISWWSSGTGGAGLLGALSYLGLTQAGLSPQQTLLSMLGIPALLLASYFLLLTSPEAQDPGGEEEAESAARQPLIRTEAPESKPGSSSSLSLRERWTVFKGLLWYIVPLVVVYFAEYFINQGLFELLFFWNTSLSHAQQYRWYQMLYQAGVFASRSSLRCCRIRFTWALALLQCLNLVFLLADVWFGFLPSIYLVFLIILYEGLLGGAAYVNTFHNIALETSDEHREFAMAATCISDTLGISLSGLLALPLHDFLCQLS
Procedure: as §1, §2
Binding of CLN3 to GalCer and sulfatide. Membranes impregnated with sphingolipids were overlaid with protein cell lysates from CLN3-overexpressing and JNCL cells. Anti-CLN3 antibody was used to evaluate binding. […] The signal for GalCer-wild-type CLN3p binding was weaker because the more polar sulfatide competes with the less polar GalCer for binding to wild-type CLN3p.

[4] = system: mutant CLN3p; experiment: Protein-lipid overlay assay, mutant CLN3p (JNCL cell lysate); format: binding, human; details: lysate of JNCL cells, anti-CLN3 antibody
Procedure: as §1, §2
Binding of CLN3 to GalCer and sulfatide. Membranes impregnated with sphingolipids were overlaid with protein cell lysates from CLN3-overexpressing and JNCL cells. Anti-CLN3 antibody was used to evaluate binding. […]

[5] = target: T2, CLN1 protein (Homo sapiens, UniProt P50897); experiment: Protein-lipid overlay assay, CLN1 protein; format: binding; details: lysates from normal cells, custom made sphingostrips
T2 construct: endogenous in cells
T2 sequence (P50897 28-306): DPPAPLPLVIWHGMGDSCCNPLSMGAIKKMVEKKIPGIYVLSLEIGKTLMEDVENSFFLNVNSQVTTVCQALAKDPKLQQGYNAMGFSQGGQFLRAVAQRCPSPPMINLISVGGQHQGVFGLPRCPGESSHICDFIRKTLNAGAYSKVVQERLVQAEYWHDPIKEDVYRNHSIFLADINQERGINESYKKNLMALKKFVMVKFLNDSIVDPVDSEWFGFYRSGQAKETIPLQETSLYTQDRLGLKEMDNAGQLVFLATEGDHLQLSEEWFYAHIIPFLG
Procedure: as §1, §2, §3

[6] = target: T3, CLN2 protein (Homo sapiens, UniProt O14773); experiment: Protein-lipid overlay assay, CLN2 protein; format: binding; details: lysates from normal cells, custom made sphingostrips
T3 construct: endogenous in cells
T3 sequence (O14773 196-563): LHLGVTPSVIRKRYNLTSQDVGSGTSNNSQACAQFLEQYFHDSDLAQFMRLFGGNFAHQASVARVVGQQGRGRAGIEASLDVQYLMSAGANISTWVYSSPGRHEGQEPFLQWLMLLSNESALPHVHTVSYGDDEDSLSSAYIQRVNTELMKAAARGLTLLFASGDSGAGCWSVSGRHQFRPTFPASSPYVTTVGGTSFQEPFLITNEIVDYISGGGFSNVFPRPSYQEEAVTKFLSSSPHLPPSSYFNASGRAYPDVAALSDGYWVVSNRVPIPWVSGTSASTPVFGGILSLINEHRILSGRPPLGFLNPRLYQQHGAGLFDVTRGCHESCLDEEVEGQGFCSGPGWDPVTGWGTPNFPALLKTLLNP
Procedure: as §1, §2, §3

[7] = target: T4, CLN6 protein (Homo sapiens, UniProt Q9NWW5); experiment: Protein-lipid overlay assay, CLN6 protein; format: binding; details: lysates from normal cells, custom made sphingostrips
T4 construct: endogenous in cells
T4 sequence (Q9NWW5 1-311): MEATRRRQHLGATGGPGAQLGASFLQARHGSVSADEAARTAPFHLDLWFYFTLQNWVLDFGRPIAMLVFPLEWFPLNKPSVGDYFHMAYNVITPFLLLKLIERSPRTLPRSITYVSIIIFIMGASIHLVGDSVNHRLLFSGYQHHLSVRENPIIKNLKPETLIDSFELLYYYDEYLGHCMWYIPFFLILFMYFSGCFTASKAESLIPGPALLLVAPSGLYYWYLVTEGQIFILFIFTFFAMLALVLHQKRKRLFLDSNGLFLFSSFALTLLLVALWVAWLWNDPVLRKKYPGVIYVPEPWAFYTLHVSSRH
Procedure: as §1, §2
CLN1, CLN2, CLN6, CLN8 and CLN9 proteins also bind to lipids. The protein-lipid overlay assay, using custom made sphingostrips, lysates from normal cells and anti-CLN1, anti-CLN2-, anti-CLN6, and anti-CLN8-antibodies, established that CLN6 and CLN8 proteins bind to GalCer, CLN1, CLN2 and CLN6p bind lysophosphatidic acid (LPA) and sulfatide, and CLN8p binds ceramide (FIG. 5).

[8] = system: CLN3 knockdown NT2 cells; experiment: Cell proliferation rate in CLN3 knockdown NT2 cells, Trypan blue dye exclusion; format: cell-based, human; details: NT2 cells, 3 days post-transfection, vs WT-NT2
Procedure: (§4) Cell Culture and Cell Treatment. NT2 neuronal precursor cells (ATCC cat no. CRL 1973) were grown in DMEM supplemented with 1% sodium pyruvate, L-glutamine and antibiotics and incubated in 37 C and 5% CO2 for 3 days.
(§5) siRNA knockdown of CLN3 in NT2 cells. HS1 siRNA ([…]) for CLN3 knockdown was designed using BLOCK-iT RNA™ Designer (Invitrogen). […] siRNA and scrambled universal negative control siRNA oligonucleotides were transfected into wild type NT2 cells using Lipofectamine RNAiMax™ according to manufacturer's protocol. In brief, […] HS1 RNAi duplex or scrambled siRNA universal negative control were diluted in 50 μl DMEM medium without serum. Lipofectamine™ RNAiMAX was mixed gently before use, then 1 μl was diluted in 50 μl DMEM medium. The diluted RNAi duplexes were combined with the diluted Lipofectamine RNAiMAX and incubated for 10 minutes at room temperature. The RNAi duplex-Lipofectamine™ RNAiMAX complexes were added to cells for a final RNA concentration of 10 nM. […]
Determination of cell proliferation rate in CLN3 knockdown NT2 cells. 4×10^5 cells transfected with CLN3 siRNA or scrambled siRNA, and treated or not treated with 50 ng/ml GalCer, were seeded and counted with Trypan blue dye exclusion. […]
NT2 cell proliferation and apoptosis rates. An equal number of NT2 cells was initially seeded and cell number determined at different time points with Trypan blue dye exclusion. […]

[9] = system: CLN3 knockdown NT2 cells; experiment: Cell apoptosis rate in CLN3 knockdown NT2 cells, propidium iodide; format: cell-based, human; details: NT2 cells, 3 days post-transfection, vs wild type
Procedure: as §4
as §5, with “temperature.” for “temperature. The RNAi duplex-Lipofectamine™ RNAiMAX complexes were added to cells for a final RNA concentration of 10 nM.”
Determination of cell apoptosis rate in CLN3 knockdown NT2 cells. 10^6 cells transfected with CLN3 siRNA or scrambled siRNA, either treated with 50 ng/ml of GalCer (Avanti Polar Lipids, inc.) or solvent, are suspended in 100 μl PBS, incubated with 100 μl/0.5 mg/ml PI, washed, placed on slides and viewed using a fluorescence microscope. […] Cells in three fields of vision were counted. Percentage of red staining-apoptotic cells/total cells was determined.

[10] = system: CLN3 transcript; experiment: Real-Time PCR validation of CLN3 knockdown in NT2 cells; format: cell-based, human; details: 3 days post-transfection, vs scrambled siRNA
Procedure: siRNA knockdown of CLN3 in NT2 cells. HS1 siRNA ([…]) for CLN3 knockdown was designed using BLOCK-iT RNA™ Designer (Invitrogen). […] siRNA and scrambled universal negative control siRNA oligonucleotides were transfected into wild type NT2 cells using Lipofectamine RNAiMax™ according to manufacturer's protocol. In brief, […] HS1 RNAi duplex or scrambled siRNA universal negative control were diluted in 50 μl DMEM medium without serum. Lipofectamine™ RNAiMAX was mixed gently before use, then 1 μl was diluted in 50 μl DMEM medium. The diluted RNAi duplexes were combined with the diluted Lipofectamine RNAiMAX and incubated for 10 minutes at room temperature. The RNAi duplex-Lipofectamine™ RNAiMAX complexes were added to cells for a final RNA concentration of 10 nM. Cells were harvested 96 hours post-transfection.
Real-Time PCR validation of CLN3 knockdown. To calculate the effect of CLN3 knockdown following siRNA transfection, RNA from NT2 cells, transfected either with CLN3 siRNA or with scrambled siRNA, was isolated using Trizol reagent (Invitrogen). Reverse transcription was carried out with SuperScript III First-Strand-Synthesis System (Invitrogen). Real Time-PCR was conducted on 500 ng cDNA using /SYBRGreen 10 Mix (Biorad, U.S.A) in a Biorad I-Cycler. […] To confirm CLN3 knockdown, change in fold expression compared to scrambled siRNA transfected control cells was calculated. […]

COc1cc([C@@H]2c3cc4c(cc3[C@@H](O[C@@H]3O[C@@H]5CO[C@@H](C)O[C@H]5[C@H](O)[C@H]3O)[C@H]3COC(=O)[C@H]23)OCO4)cc(OC)c1O [Etoposide, etoposide]
effect of etoposide on apoptosis of GCT knockdown cells [1]: augmented the effect of reduced GalCer on apoptosis

ceramide
binding of CLN8 protein to lipid [2]: binds

sulfatide
binding of wild-type CLN3p to membrane spots impregnated with the lipid [3]: bind strongly | binding of mutant CLN3 to membrane spots impregnated with the lipid [4]: failed to do so | binding of CLN1 protein to lipid [5]: bind | binding of CLN2 protein to lipid [6]: bind | binding of CLN6 protein to lipid [7]: bind

HS1: HS1 siRNA (TCACGATTTGACTGCAACTCTG) for CLN3 knockdown (listed as DNA, chemistry not given here) [reference compound]
decrease in growth [8]: 58% | increase in apoptosis [9]: 2.4 fold | decrease in CLN3 expression [10]: 22 fold

lysophosphatidic acid
binding of CLN1 protein to lipid [5]: bind | binding of CLN2 protein to lipid [6]: bind | binding of CLN6 protein to lipid [7]: bind

— patent publication US8242086B2, “Methods and compositions for treating disorders caused by a deficiency in a gene product of a CLN gene” (Duke University, priority 2008, dated 2012)
